Here are results for two sequences from patent publication US10676508B2, “DEPDC1-derived peptide and vaccine containing same” (OncoTherapy Science, Inc., priority 2015, dated 2020).

Experiment [1] concerns peptide-pulsed C1R-A01 cells. Nature of the experiment: IFN-gamma ELISA of CTL line and CTL clone (HLA-A*0101). The format is cell-based, human. The procedure:
(§1) CTLs were propagated in culture using methods similar to those disclosed by Riddell et al. (Walter E A et al., N Engl J Med 1995, 333(16): 1038-44; Riddell S R et al., Nat Med 1996, 2(2): 216-23). The CTLs were co-cultured in a total of 25 ml AIM-V medium containing 5% AS and 40 ng/ml anti-CD3 antibody with two types of Mitomycin C-treated human B lymphoblastoid cell lines at 5×10^6 cells. One day after beginning of the culturing, 120 IU/ml IL-2 was added to the culture. On days 5, 8 and 11, a fresh AIM-V/5% AS medium containing 30 IU/ml IL-2 was added to the culture (Tanaka H et al., Br J Cancer 2001, 84(1): 94-9; Umano Y et al., Br J Cancer 2001, 84(8): 1052-7; Uchida N et al., Clin Cancer Res 2004, 10(24): 8577-86; Suda T et al., Cancer Sci 2006, 97(5): 411-9; Watanabe T et al., Cancer Sci 2005, 96(8): 498-506).
CTLs were seeded to make 1 or 10 cells/well in 96 round-bottomed microtiter plates (Nalge Nunc International). The CTLs were co-cultured with two types of Mitomycin C-treated human B lymphoblastoid cell lines at 1×10^4 cells in a total of 150 micro-l/well 5% AS-containing AIM-V medium with 30 ng/ml anti-CD3 antibody and 125 IU/ml IL-2. Ten days later, 50 micro-1 of IL-2 at 500 IU/ml in 5% AS-containing AIM-V medium was added to the medium. […]
(In an ELISA, binding on a coated surface is turned into a signal by an enzyme label.)

Experiment [2] has as its system COS7 cells transfected with DEPDC1 and HLA-A*0101. Nature of the experiment: Specific CTL activity against target cells expressing DEPDC1 and HLA-A*0101. Format: cell-based, African green monkey. The following applies: peptide-induced CTL clone. An excerpt:
A cDNA encoding the open-reading frame of a target gene or HLA-A*0101 was amplified by PCR. The PCR-amplified product was cloned into an expression vector. Expression vectors were transfected using Lipofectamine 2000 (Invitrogen) following the manufacturer's recommended protocol. Two days after transfection, the transfected cells were harvested using versene (Invitrogen), and used as the stimulator cell for CTL activity assay (5×10^4 cells/well).
The CTL clone induced with DEPDC1-A01-11-44 (SEQ ID NO: 108) was investigated for its ability to recognize target cells expressing DEPDC1 and the HLA-A*0101 molecule. COS7 cells transfected with both full-length DEPDC1 and the HLA-A*0101 gene were prepared as the target cell. COS7 cells transfected with either full-length DEPDC1 or HLA-A*0101 were prepared as the control.

For experiment [3], the system named is peptide-pulsed C1R-A01 cells. Nature of the experiment: In vitro CTL induction, IFN-gamma ELISPOT assay (HLA-A*0101). The format is cell-based, human. The note with it: CTLs from HLA-A*0101-positive donors, DCs pulsed with 20 micro-g/ml peptide, day 21, versus unpulsed C1R-A01. From the text: Monocyte-derived dendritic cells (DCs) were used as the antigen-presenting cell to induce a cytotoxic T lymphocyte (CTL) response against peptides presented on human leukocyte antigens (HLAs). As described in the other sections, DCs were generated in vitro (Nakahara S et al., Cancer Res 2003, 63(14): 4112-8). Specifically, peripheral-blood mononuclear cells isolated from healthy volunteers (HLA-A*0101-positive) with the Ficoll-Paque plus solution (Pharmacia) were separated by attaching to plastic tissue culture dishes (Becton Dickinson) and concentrated as a monocyte fraction. The monocyte-concentrated population was cultured in the presence of 1000 IU/ml granulocyte macrophage colony-stimulating factor (R&D System) and 1000 IU/ml interleukin (IL)-4 (R&D System) in an AIM-V medium (Invitrogen) containing 2% heat-inactivated autologous serum (AS). After seven days of culturing, the cytokine-induced DCs were pulsed with 20 micro-g/ml each of the synthesized peptides in an AIM-V medium at 37 degrees C. for three hours in the presence of 3 micro-g/ml beta 2-microglobulin. Next, these peptide-pulsed DCs were inactivated by X-ray irradiation (20 Gy), and mixed in a 1:20 ratio with autologous CD8^+ T cells obtained by positive selection using the CD8 Positive Isolation Kit (Dynal). These culture products were seeded in a 48-well plate (Corning). Each well was made to contain 1.5×10^4 peptide-pulsed DCs, 3×10^5 CD8^+ T cells and 10 ng/ml IL-7 (R&D System) in 0.5 ml of the AIM-V/2% AS medium. Three days later, these culture products were added with a final concentration of 20 IU/ml IL-2 (CHIRON). On day 7 and day 14, T cells were further stimulated with peptide-pulsed autologous DCs. The DCs were prepared every time by the same method as above. On day 21, after the third peptide stimulation, CTL activities were examined against the peptide-pulsed C1R-A01 cells (Tanaka H et al., Br J Cancer 2001, 84(1): 94-9; Umano Y et al., Br J Cancer 2001, 84(8): 1052-7; Uchida N et al., Clin Cancer Res 2004, 10(24): 8577-86; Suda T et al., Cancer Sci 2006, 97(5): 411-9; Watanabe T et al., Cancer Sci 2005, 96(8): 498-506).
To examine specific CTL activity, an IFN-gamma ELISPOT assay and an IFN-gamma ELISA were performed. Specifically, peptide-pulsed C1R-A01 cells (1×10^4 cells/well) were prepared as the stimulator cell. The induced CTLs, i.e., CTL lines and CTL clones, were used as the responder cell. The IFN-gamma ELISPOT assay and IFN-gamma ELISA were performed according to the manufacturer's manual.

Experiment [4] has as its system COS7 cells transfected with DEPDC1 and HLA-A*1101. The experiment is described as follows: Specific CTL activity against target cells expressing DEPDC1 and HLA-A*1101. Format: cell-based, African green monkey. The note with it: peptide-induced CTL line. An excerpt: A cDNA encoding the open-reading frame of a target gene or HLA-A*1101 was amplified by PCR. The PCR-amplified product was cloned into an expression vector. Either or both of the target gene-expressing vector and the HLA-A*1101-expressing vector were transfected into COS7 cells, which is a cell line negative for the target gene and HLA, using Lipofectamine 2000 (Invitrogen) following the manufacturer's recommended protocol. Two days after transfection, the transfected cells were harvested using versene (Invitrogen), and used as the target cell for CTL activity assay (5×10^4 cells/well).
The CTL line induced with DEPDC1-A11-9-627 (SEQ ID NO: 1) was investigated for its ability to recognize target cells expressing DEPDC1 and the HLA-A*1101 molecule. COS7 cells transfected with both full-length DEPDC1 and the HLA-A*1101 gene were prepared as the target cell. COS7 cells transfected with either full-length DEPDC1 or HLA-A*1101 were prepared as the control.

Experiment [5] has as its system peptide-pulsed C1R-A11. The experiment is described as follows: In vitro CTL induction, IFN-gamma ELISPOT assay (HLA-A*1101). The format is cell-based, human. The note with it: CTLs from HLA-A*1101-positive donors, DCs pulsed with 20 micro-g/ml peptide, day 21, versus unpulsed C1R-A11. An excerpt:
Monocyte-derived dendritic cells (DCs) were used as the antigen-presenting cell to induce a cytotoxic T lymphocyte (CTL) response against peptides presented on human leukocyte antigens (HLAs). As described in the other sections, DCs were generated in vitro (Nakahara S et al., Cancer Res 2003, 63(14): 4112-8). Specifically, peripheral-blood mononuclear cells isolated from healthy volunteers (HLA-A*1101-positive) with the Ficoll-Paque plus solution (Pharmacia) were separated by attaching to plastic tissue culture dishes (Becton Dickinson) and concentrated as a monocyte fraction. The monocyte-concentrated population was cultured in the presence of 1000 IU/ml granulocyte macrophage colony-stimulating factor (R&D System) and 1000 IU/ml interleukin (IL)-4 (R&D System) in an AIM-V medium (Invitrogen) containing 2% heat-inactivated autologous serum (AS). After seven days of culturing, the cytokine-induced DCs were pulsed with 20 micro-g/ml each of the synthesized peptides in an AIM-V medium at 37 degrees C. for three hours in the presence of 3 micro-g/ml beta 2-microglobulin.
Next, these peptide-pulsed DCs were inactivated by X-ray irradiation (20 Gy), and mixed in a 1:20 ratio with autologous CD8^+ T cells obtained by positive selection using the CD8 Positive Isolation Kit (Dynal). These culture products were seeded in a 48-well plate (Corning). […]

The subject of experiment [6] is peptide-pulsed C1R-A11. Nature of the experiment: IFN-gamma ELISA of CTL line and CTL clones (HLA-A*1101). Format: cell-based, human. As for the experimental part:
as §1, with “5% AS (AIM-V/5% AS) and 40” for “5% AS and 40”, “cell lines (5×10^6 cells). One day” for “cell lines at 5×10^6 cells. One day”
CTLs were seeded to make 1 or 10 cells/well in 96 round-bottomed microtiter plates (Nalge Nunc International). The CTLs were co-cultured with two types of Mitomycin C-treated human B lymphoblastoid cell lines at 1×10^4 cells in a total of 150 micro-l/well AIM-V/5% AS medium with 30 ng/ml anti-CD3 antibody and 125 IU/ml IL-2. Ten days later, IL-2 at 500 IU/ml in 50 micro-1 AIM-V/5% AS medium was added to the medium. […]

On to “FTAGEAVDWLY (a peptide derived from DEPDC1) [SEQ ID NO: 108]”, for which, in experiment [1] (CTL clone by limiting dilution, peptide-pulsed C1R-A01 cells), the “IFN-gamma production of CTL clone (ELISA)” value was “Potent IFN-gamma production”. For the same sequence, in experiment [1] (CTL line from Well #8, peptide-pulsed versus unpulsed target cells), the “IFN-gamma production of the CTL line (ELISA)” value is listed as “potent IFN-gamma production”. For the same sequence, in experiment [2] (COS7 transfected with either full-length DEPDC1 or HLA-A*0101), the “CTL activity against control COS7 cells” value is given as “a significant specific CTL activity was not detected”. Also, the “CTL activity against COS7 cells expressing both DEPDC1 and HLA-A*0101” value in experiment [2] is “potent CTL activities”. Moreover, the “peptide-specific CTL activity (IFN-gamma production, ELISPOT)” value in experiment [3] was “potent IFN-gamma production”.

Consider MSQNVDMPK [SEQ ID NO: 1], for which the “CTL activity against control COS7 cells” value in experiment [4] (COS7 transfected with either full-length DEPDC1 or HLA-A*1101) is on record as “a significant specific CTL activity was not detected”. In experiment [4], the “CTL activity against COS7 cells expressing both DEPDC1 and HLA-A*1101” value is on record as “potent CTL activity”. For the same sequence, the “peptide-specific CTL activity (IFN-gamma production, ELISPOT)” value in experiment [5] is given as “potent IFN-gamma production”. Besides, the “IFN-gamma production of CTL clones (ELISA)” value in experiment [6] (CTL clones by limiting dilution, peptide-pulsed C1R-A11 cells) is recorded as “Potent IFN-gamma production”. Further, the “IFN-gamma production of the CTL line (ELISA)” value in experiment [6] (CTL line from Well #4, peptide-pulsed versus unpulsed target cells) is given as “potent IFN-gamma production”.
